Laboratory results from ChEMBL document CHEMBL1145970 (J Med Chem, 2003).
Active and inactive are the calls of the source. The calls are words filed in the database; no cut-off is given here.

Tests used:
[1] = molecular target: T1, 5-hydroxytryptamine receptor 1A (Rattus norvegicus, UniProt P19327); assay: Binding affinity to the rat 5-hydroxytryptamine 1A receptor
T1 sequence (P19327 whole entry): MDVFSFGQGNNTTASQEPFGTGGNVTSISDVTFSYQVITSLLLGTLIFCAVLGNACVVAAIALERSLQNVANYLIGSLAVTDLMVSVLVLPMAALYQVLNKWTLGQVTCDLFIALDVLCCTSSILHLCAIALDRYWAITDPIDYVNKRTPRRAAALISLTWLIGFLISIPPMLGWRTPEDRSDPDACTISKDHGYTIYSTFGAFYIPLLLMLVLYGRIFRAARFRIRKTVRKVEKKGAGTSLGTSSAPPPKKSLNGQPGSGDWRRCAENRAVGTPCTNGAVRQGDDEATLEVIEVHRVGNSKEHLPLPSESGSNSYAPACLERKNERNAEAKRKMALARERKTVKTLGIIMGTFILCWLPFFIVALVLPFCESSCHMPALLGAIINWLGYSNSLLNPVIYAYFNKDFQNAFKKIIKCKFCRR

[2] = molecular target: 5-hydroxytryptamine receptor 7 (Rattus norvegicus, UniProt P32305); assay: Binding affinity to the rat 5-hydroxytryptamine 7 receptor
Sequence of 5-hydroxytryptamine receptor 7 (P32305 whole entry): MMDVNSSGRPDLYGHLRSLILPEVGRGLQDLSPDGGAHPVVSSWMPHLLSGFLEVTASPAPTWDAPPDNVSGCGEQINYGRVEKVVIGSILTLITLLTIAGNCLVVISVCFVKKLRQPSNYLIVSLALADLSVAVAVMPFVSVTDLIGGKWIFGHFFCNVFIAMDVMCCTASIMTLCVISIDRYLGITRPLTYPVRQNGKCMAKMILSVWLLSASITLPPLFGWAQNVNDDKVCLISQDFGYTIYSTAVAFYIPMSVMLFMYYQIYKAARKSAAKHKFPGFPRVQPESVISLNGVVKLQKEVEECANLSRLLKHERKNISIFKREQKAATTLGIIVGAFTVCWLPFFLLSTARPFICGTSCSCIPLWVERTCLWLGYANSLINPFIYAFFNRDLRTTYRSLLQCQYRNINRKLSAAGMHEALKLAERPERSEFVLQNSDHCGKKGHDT

[3] = molecular target: 5-hydroxytryptamine receptor 7 (Rattus norvegicus) (UniProt P32305); details: Ileum
Sequence of 5-hydroxytryptamine receptor 7 (Rattus norvegicus) (P32305 whole entry): as above
Description: Maximal relaxation effect induced by 3 uM compound on substance P stimulated guinea pig ileum with 5-hydroxytryptamine receptor desensitization

D(2) dopamine receptor = D(2) dopamine receptor (Homo sapiens, UniProt P14416); assay: Binding affinity of compound was tested for Dopamine receptor D2L
Sequence of D(2) dopamine receptor (P14416 whole entry): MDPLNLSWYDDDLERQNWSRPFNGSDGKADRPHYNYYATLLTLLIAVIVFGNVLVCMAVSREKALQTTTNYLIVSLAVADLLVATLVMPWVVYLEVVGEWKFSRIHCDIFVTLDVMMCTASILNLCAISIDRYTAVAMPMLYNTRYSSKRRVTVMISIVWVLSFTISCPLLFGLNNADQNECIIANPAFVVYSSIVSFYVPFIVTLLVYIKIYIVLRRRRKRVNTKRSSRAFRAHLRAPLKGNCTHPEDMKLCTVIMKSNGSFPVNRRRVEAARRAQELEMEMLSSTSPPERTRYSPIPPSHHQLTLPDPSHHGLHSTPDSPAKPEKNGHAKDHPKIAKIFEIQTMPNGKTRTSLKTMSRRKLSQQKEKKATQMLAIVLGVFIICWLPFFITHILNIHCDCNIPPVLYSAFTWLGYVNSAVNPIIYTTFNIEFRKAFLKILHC

[4] = test system: 5-hydroxytryptamine receptor 7 (Cavia porcellus); assay: Maximal relaxation effect induced by 3 uM compound on substance P stimulated guinea pig ileum with 5-hydroxytryptamine 7 receptor desensitization
[5] = test system: 5-hydroxytryptamine receptor 7 (Cavia porcellus); assay: Maximal relaxation effect induced by 3 uM compound on substance P stimulated guinea pig ileum with 5-hydroxytryptamine 7 receptor nondesensitization
D(3) dopamine receptor = D(3) dopamine receptor (Rattus norvegicus, UniProt P19020); assay: Binding affinity of compound was tested for Dopamine receptor D3
Sequence of D(3) dopamine receptor (P19020 whole entry): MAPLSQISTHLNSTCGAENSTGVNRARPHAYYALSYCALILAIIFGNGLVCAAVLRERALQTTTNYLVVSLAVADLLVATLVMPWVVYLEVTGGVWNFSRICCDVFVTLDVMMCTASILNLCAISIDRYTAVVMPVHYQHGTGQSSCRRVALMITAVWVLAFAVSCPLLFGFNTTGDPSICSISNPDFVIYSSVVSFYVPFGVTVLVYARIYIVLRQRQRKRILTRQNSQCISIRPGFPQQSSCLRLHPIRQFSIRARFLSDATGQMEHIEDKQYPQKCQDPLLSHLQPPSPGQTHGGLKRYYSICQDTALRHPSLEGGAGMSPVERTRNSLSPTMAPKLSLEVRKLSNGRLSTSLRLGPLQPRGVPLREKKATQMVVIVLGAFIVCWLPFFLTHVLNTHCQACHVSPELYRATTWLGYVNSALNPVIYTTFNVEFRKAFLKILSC

[6] = molecular target: T2, Adrenergic receptor alpha-1 (Rattus norvegicus, UniProt P15823+P23944+P43140); assay: Binding affinity of compound was tested for Alpha-1 adrenergic receptor; assay type: protein assay
T2 sequence (P15823 whole entry): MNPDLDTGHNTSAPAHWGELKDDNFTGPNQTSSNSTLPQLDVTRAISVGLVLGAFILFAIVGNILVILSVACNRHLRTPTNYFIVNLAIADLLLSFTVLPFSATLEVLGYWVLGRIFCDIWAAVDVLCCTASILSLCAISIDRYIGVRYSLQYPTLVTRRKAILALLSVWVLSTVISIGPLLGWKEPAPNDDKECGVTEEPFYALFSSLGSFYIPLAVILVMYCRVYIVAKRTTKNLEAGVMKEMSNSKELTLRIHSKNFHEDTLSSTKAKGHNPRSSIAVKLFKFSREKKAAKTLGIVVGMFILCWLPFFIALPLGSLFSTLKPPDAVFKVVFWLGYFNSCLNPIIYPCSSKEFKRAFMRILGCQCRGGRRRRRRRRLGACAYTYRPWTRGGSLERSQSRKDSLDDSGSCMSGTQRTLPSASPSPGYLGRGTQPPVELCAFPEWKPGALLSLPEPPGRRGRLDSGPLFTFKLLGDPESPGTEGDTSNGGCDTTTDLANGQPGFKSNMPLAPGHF
T2 sequence (P23944 whole entry): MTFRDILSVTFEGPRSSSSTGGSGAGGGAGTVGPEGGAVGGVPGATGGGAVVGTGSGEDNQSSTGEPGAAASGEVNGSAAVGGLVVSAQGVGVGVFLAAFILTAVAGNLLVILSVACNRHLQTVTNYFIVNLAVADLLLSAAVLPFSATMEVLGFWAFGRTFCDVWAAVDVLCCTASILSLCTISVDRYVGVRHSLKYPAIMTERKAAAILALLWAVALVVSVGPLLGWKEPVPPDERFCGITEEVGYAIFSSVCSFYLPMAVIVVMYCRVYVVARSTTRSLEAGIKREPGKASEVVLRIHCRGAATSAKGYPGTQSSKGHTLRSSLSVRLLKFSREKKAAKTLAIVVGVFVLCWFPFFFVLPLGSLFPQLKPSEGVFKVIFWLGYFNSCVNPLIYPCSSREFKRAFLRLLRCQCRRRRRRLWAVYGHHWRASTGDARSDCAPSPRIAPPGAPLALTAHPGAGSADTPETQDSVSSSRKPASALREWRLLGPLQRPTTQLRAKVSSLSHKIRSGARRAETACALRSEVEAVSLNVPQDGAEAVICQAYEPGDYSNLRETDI
T2 sequence (P43140 whole entry): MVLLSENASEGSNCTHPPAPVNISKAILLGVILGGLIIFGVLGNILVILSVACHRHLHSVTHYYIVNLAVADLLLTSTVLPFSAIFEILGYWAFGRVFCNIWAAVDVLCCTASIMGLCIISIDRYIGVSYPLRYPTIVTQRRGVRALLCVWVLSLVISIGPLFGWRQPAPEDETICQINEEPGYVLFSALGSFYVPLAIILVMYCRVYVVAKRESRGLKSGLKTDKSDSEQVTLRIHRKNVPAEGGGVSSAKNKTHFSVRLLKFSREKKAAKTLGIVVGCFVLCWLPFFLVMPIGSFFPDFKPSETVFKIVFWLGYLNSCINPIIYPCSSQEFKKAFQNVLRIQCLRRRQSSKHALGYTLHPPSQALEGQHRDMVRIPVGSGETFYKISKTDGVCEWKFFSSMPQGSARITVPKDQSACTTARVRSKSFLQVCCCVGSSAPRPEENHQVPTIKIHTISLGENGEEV

[7] = molecular target: 5-hydroxytryptamine receptor 2A (Rattus norvegicus, UniProt P14842); assay: Binding affinity of compound was tested for 5-hydroxytryptamine 2A receptor
Sequence of 5-hydroxytryptamine receptor 2A (P14842 whole entry): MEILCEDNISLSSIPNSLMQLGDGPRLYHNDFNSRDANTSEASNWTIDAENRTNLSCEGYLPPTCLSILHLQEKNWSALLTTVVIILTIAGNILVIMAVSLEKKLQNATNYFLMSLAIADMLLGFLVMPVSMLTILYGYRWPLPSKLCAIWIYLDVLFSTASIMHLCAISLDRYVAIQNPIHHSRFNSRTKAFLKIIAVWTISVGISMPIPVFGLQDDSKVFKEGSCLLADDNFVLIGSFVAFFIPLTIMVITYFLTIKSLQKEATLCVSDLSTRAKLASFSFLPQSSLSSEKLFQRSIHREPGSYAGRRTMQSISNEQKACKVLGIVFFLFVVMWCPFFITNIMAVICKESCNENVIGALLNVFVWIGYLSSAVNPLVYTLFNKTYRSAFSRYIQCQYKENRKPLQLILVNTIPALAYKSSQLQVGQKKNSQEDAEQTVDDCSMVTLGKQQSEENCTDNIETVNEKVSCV

D(4) dopamine receptor = molecular target: T3, D(4) dopamine receptor (Homo sapiens, UniProt P21917); assay: Binding affinity of compound was tested for Dopamine receptor D4
T3 sequence (P21917 whole entry): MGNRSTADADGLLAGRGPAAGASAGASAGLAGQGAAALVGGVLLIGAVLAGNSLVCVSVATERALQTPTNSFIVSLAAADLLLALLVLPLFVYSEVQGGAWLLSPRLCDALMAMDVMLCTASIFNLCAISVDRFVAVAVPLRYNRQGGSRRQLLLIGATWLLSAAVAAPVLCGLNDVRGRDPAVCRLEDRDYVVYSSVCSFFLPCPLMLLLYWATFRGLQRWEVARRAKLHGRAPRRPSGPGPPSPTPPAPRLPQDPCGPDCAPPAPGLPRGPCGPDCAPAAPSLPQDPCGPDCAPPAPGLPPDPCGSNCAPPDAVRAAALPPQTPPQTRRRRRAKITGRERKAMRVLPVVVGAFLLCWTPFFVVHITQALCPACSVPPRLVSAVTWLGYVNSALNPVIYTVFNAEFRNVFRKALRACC

[8] = molecular target: 5-hydroxytryptamine receptor 7 (Rattus norvegicus) (UniProt P32305); details: Ileum; remark: listed apart in the source

COc1ccccc1N1CCN(CCCCC(=O)c2ccc(O)cc2)CC1 was tested, and the Ki [1] was 20 nM and the Ki [2] was 59.1 nM.
Compound COc1cccc(C(=O)CCCCN2CCN(c3ccccc3OC)CC2)c1 has a Ki [1] of 3.4 nM and a Ki [2] of 85 nM.
For NCCc1c[nH]c2ccc(C(N)=O)cc12, the Relaxation [3] was “inactive” and the Ki [2] was 0.51 nM.
COc1ccccc1N1CCN(CCCCCC(=O)c2cccc(O)c2)CC1 showed a Ki [1] of 24 nM and a Ki [2] of 26.8 nM.
COc1cccc(C(=O)CCCN2CCN(c3ccccc3OC)CC2)c1 gave a Ki [1] of 0.78 nM and a Ki [2] of 109 nM.
With COc1ccccc1N1CCN(CCCCC(=O)c2cccc(O)c2)CC1 the Ki [1] was 3.7 nM and the Ki [2] was 15 nM.
Work on COc1ccccc1N1CCN(CCCCC(=O)c2ccccc2O)CC1 yielded a Ki [1] of 4.1 nM and a Ki [2] of 16.4 nM.
COc1ccccc1N1CCN(CCCCCC(=O)c2ccc(O)cc2)CC1 gave a Ki [1] of 14 nM and a Ki [2] of 23.7 nM.
COc1ccc2onc(N3CCN(CCCCCC(=O)c4ccccc4O)CC3)c2c1 showed a Ki [1] of 389 nM and a Ki [2] of 462 nM.
Compound O=C(CCCCCN1CCN(c2nc3ccccc3[nH]2)CC1)c1ccccc1O has a Ki [1] of over 850 nM and a Ki [2] of 682 nM.
O=C(CCCCCN1CCN(C2CCCCC2)CC1)c1ccccc1O was tested, and the Ki [1] was over 850 nM and the Ki [2] was over 800 nM.
COc1ccccc1N1CCN(CCCCCC(=O)c2ccccc2O)CC1 gave a Ki [1] of 5.8 nM and a Ki [2] of 5.8 nM.
O=C(CCCCN1CCN(c2noc3ccccc23)CC1)c1ccccc1O showed a Ki [1] of 919 nM and a Ki [2] of 52 nM.
Compound O=C(CCCN1CCN(c2noc3ccccc23)CC1)c1ccccc1O has a Ki [1] of 1060 nM and a Ki [2] of 19.5 nM.
In the case of COc1ccccc1N1CCN(CCCCC(=O)c2ccccc2)CC1, the Ki [1] is reported as 7 nM and the Ki [2] is reported as 43.5 nM.
CN1CCN(CCCCCC(=O)c2ccccc2O)CC1 was tested, and the Ki [1] was over 850 nM and the Ki [2] was over 1000 nM.
O=C(CCCCCN1CCN(c2ccccc2)CC1)c1ccccc1O was tested, and the Ki [1] was 137 nM and the Ki [2] was 43 nM.
O=C(CCCCCN1CCN(c2cccc(C(F)(F)F)c2)CC1)c1ccccc1O was tested, and the Ki [1] was 282 nM and the Ki [2] was 384 nM.
Work on COc1ccccc1N1CCN(CCCCCC(=O)c2ccccc2)CC1 yielded a Ki [1] of 6.4 nM and a Ki [2] of 28.4 nM.
In the case of O=C(CCCCCN1CCN(c2noc3ccccc23)CC1)c1ccccc1O, the Ki [1] is reported as 189 nM, the Ki [2] is reported as 2.93 nM and the Ki (D(2) dopamine receptor) is reported as 246 nM. The Relaxation [4] was “inactive”, the Relaxation [5] was 43% and the Ki (D(3) dopamine receptor) was 361 nM. It also gave a Ki [6] of 96 nM, a Ki [7] of 7.97 nM and a Ki (D(4) dopamine receptor) of 318 nM.
Work on O=C(CCCCCN1CCN(c2nc3ccccc3o2)CC1)c1ccccc1O yielded a Ki [1] of 1460 nM and a Ki [2] of 148 nM.
For COc1ccccc1C(=O)CCCCCN1CCN(c2noc3ccccc23)CC1, the Ki [1] was 175 nM, the Ki [2] was 0.9 nM and the Ki (D(2) dopamine receptor) was 78.1 nM. The Ki (D(3) dopamine receptor) was 54.9 nM, the Relaxation [8] was “inactive” and the Ki [6] was 0.41 nM. It also gave a Ki [7] of 9.03 nM and a Ki (D(4) dopamine receptor) of 3.94 nM.
For COc1cccc(C(=O)CCCCCN2CCN(c3ccccc3OC)CC2)c1, the Ki [1] was 3.4 nM and the Ki [2] was 46 nM.
O=C(CCCCCN1CCN(c2ccccn2)CC1)c1ccccc1O showed a Ki [1] of 56 nM and a Ki [2] of 105 nM.
